Consider two molecules from patent US6255073A (priority 1998, dated 2001).

One test addresses T1, K^b sol (Mus musculus, UniProt P01901).
T1 sequence (P01901 22-305 limits assumed): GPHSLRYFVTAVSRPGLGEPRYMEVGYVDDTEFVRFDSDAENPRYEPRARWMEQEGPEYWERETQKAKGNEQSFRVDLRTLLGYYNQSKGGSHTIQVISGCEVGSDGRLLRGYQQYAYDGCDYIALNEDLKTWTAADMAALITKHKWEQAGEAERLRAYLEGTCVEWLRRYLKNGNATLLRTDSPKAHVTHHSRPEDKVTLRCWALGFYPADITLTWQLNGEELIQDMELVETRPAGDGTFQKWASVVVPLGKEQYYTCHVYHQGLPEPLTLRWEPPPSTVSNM
T1 sequence (P01887 21-119 partner): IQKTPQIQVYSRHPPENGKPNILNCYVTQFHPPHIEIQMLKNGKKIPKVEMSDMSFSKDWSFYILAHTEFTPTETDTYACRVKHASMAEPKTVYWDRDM
The test is described as follows: biochemical. As to conditions: read-out: dissociation rate constant.

The test system of another test is B3/CD8 T-cell hybridoma. The test is described as follows: Antigen presentation assay: K^b/β2 Drosophila cells cocultured with T-cell hybridoma B3/CD8, IL-2 by CTLL 3H thymidine incorporation. The format is cell-based, murine. As to conditions: Drosophila cells transfected with K^b/β2; peptide added to medium or protein osmotically loaded. How it is done:
Osmotic loading of SC2 and 3T3 cells with ovalbumin protein was carried out as described by Moore, et al., Cell 54: 777-785 (1988). The assay procedure is as follows. In a 96-well dish, 1×10^5 Drosophila cells (with or without peptide/protein loaded) or 3T3 cells were cocultured with 1×10^5 B3/CD8 T-cell hybridoma cells in 200 μl of RPMI media supplemented with 10 fetal bovine serum. After 24 hours of incubation, 100 μl of the supernatant from these cultures was added to 100 μl of RPMI containing 5,000 CTLL cells. The cells were cocultured for 24 hours at 37° C. when 1 μCi of ^3 H thymidine (Amersham) was added. After a further incubation of 15 hours at 37° C., the incorporation of radiolabel into the CTLL cells was determined by scintillation counting.
Assays conducted with murine MHC also verified that the insect cells are capable of loading peptide onto the Class I molecules. Cells expressing as few as 200-500 MHC molecules containing a particular antigen can be detected by a T-cell. […] Upon antigenic stimulation, B3/CD8 produces IL-2, measured by ^3 H thymidine incorporation in IL-2-dependenT-cell line CTLL (Gillis, et al., J. Immunol. 120: 2027 91978)). Thus, by measuring the amount of IL-2 produced, one can assay for T-cell recognition. […]
Background: Incorporation of labelled thymidine or its analogues reports DNA synthesis.

As to `CC(C)C[C@H](NC(=O)CNC(=O)[C@H](CCC(N)=O)NC(=O)[C@H](Cc1ccc(O)cc1)NC(=O)[C@@H](NC(=O)[C@H](Cc1ccc(O)cc1)NC(=O)CNC(=O)[C@@H](N)CCCNC(=N)N)C(C)C)C(=O)O` [[^125 I]VSV-8], at K^b sol, the koff came to 0.00032 s⁻¹.

B1: ovalbumin (protein, UniProt P01012 2-386, looked up)
Ovalbumin: GSIGAASMEFCFDVFKELKVHHANENIFYCPIAIMSALAMVYLGAKDSTRTQINKVVRFDKLPGFGDSIEAQCGTSVNVHSSLRDILNQITKPNDVYSFSLASRLYAEERYPILPEYLQCVKELYRGGLEPINFQTAADQARELINSWVESQTNGIIRNVLQPSSVDSQTAMVLVNAIVFKGLWEKAFKDEDTQAMPFRVTEQESKPVQMMYQIGLFRVASMASEKMKILELPFASGTMSMLVLLPDEVSGLEQLESIINFEKLTEWTSSNVMEERKIKVYLPRMKMEEKYNLTSVLMAMGITDVFSSSANLSGISSAESLKISQAVHAAHAEINEAGREVVGSAEAGVDAASVSEEFRADHPFLFCIKHIATNAVLFFGRCVSP
notes: ovalbumin (Sigma Chem. Co.) osmotically loaded into the cells
On to B1, for which, in the test with B3/CD8 T-cell hybridoma, the “T-cell recognition (IL-2 production by B3/CD8)” value is “no recognition occurred”.
